# Measured values: PubChem BioAssay (NCI)
#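 48-hour exposure; five concentrations; linearly interpolated endpoints. GI50: concentration for 50% inhibition of growth. TGI: concentration producing complete growth inhibition.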
# Experiments:
# Assay in all cases: NCI-60 cell line screen, 48 h
# [1] = system: ACHN renal
# [2] = system: SR leukemia
# [3] = system: NCI-H522 lung
# [4] = system: TK-10 renal
# [5] = system: MDA-MB-231 breast
# [6] = system: SF-268 CNS
# [7] = system: DU-145 prostate
# [8] = system: SF-539 CNS
# [9] = system: SNB-75 CNS
# [10] = system: CCRF-CEM leukemia
# [11] = system: PC-3 prostate
# [12] = system: HCC-2998 colon
# [13] = system: SK-MEL-5 melanoma
# [14] = system: OVCAR-5 ovarian
# [15] = system: U251 CNS
# [16] = system: HS 578T breast
# [17] = system: COLO 205 colon
# [18] = system: SK-MEL-28 melanoma
# [19] = system: OVCAR-8 ovarian
# [20] = system: SN12C renal
# [21] = system: HL-60(TB) leukemia
# [22] = system: T-47D breast
# [23] = system: HT29 colon
# [24] = system: UACC-62 melanoma
# [25] = system: A498 renal
# [26] = system: LOX IMVI melanoma
# [27] = system: UACC-257 melanoma
# [28] = system: SW-620 colon
# [29] = system: MALME-3M melanoma
# [30] = system: SK-MEL-2 melanoma
# [31] = system: 786-0 renal
# [32] = system: NCI-H23 lung
# [33] = system: BT-549 breast
# [34] = system: CAKI-1 renal
# [35] = system: MOLT-4 leukemia
# [36] = system: UO-31 renal
# [37] = system: NCI-H226 lung
# [38] = system: M14 melanoma
# [39] = system: HCT-15 colon
# [40] = system: RPMI-8226 leukemia
# [41] = system: HOP-62 NSCLC
# [42] = system: NCI/ADR-RES ovarian
# [43] = system: MCF7 breast
# [44] = system: MDA-MB-435
# [45] = system: SNB-19 CNS
# [46] = system: NCI-H460 lung
# [47] = system: K-562 leukemia
# [48] = system: A549 NSCLC
# [49] = system: SF-295 CNS
# [50] = system: OVCAR-4 ovarian
# [51] = system: HOP-92 NSCLC
# [52] = system: OVCAR-3 ovarian
# [53] = system: EKVX NSCLC
# [54] = system: KM12 colon
# [55] = system: SK-OV-3 ovarian
# [56] = system: HCT-116 colon
# [57] = system: RXF 393 renal
structure (smiles),measurement,setting,value
COc1ccccc1/C=N\N=C(N/N=C/c1ccccc1OC)N/N=C/c1ccccc1OC,GI50,[1],3.14 µM
same,TGI,[1],> 100 µM
same,GI50,[2],3.16 µM
same,TGI,[2],12.5 µM
same,GI50,[3],4.55 µM
same,TGI,[3],> 100 µM
same,GI50,[4],6.01 µM
same,TGI,[4],> 100 µM
same,GI50,[5],3.2 µM
same,TGI,[5],9.11 µM
same,GI50,[6],3.69 µM
same,TGI,[6],> 100 µM
same,GI50,[7],3.92 µM
same,TGI,[7],> 100 µM
same,GI50,[8],4.27 µM
same,TGI,[8],> 100 µM
same,GI50,[9],2.72 µM
same,TGI,[9],9.4 µM
same,GI50,[10],3.22 µM
same,TGI,[10],> 100 µM
same,GI50,[11],2.77 µM
same,TGI,[11],> 100 µM
same,GI50,[12],3.82 µM
same,TGI,[12],> 100 µM
same,GI50,[13],1.77 µM
same,TGI,[13],3.23 µM
same,GI50,[14],4 µM
same,TGI,[14],> 100 µM
same,GI50,[15],2.67 µM
same,TGI,[15],15 µM
same,GI50,[16],2.88 µM
same,TGI,[16],53.2 µM
same,GI50,[17],2.11 µM
same,TGI,[17],4.63 µM
same,GI50,[18],6.41 µM
same,TGI,[18],> 100 µM
same,GI50,[19],3.23 µM
same,TGI,[19],14.5 µM
same,GI50,[20],3.35 µM
same,TGI,[20],19.7 µM
same,GI50,[21],3.09 µM
same,TGI,[21],9.26 µM
same,GI50,[22],3.27 µM
same,TGI,[22],9.69 µM
same,GI50,[23],3.87 µM
same,TGI,[23],> 100 µM
same,GI50,[24],2.55 µM
same,TGI,[24],7.71 µM
same,GI50,[25],2.73 µM
same,TGI,[25],9.92 µM
same,GI50,[26],3.33 µM
same,TGI,[26],11.3 µM
same,GI50,[27],3.12 µM
same,TGI,[27],10.2 µM
same,GI50,[28],3.38 µM
same,TGI,[28],13.6 µM
same,GI50,[29],3.73 µM
same,TGI,[29],20.8 µM
same,GI50,[30],5.51 µM
same,TGI,[30],> 100 µM
same,GI50,[31],3.25 µM
same,TGI,[31],67.2 µM
same,GI50,[32],3.91 µM
same,TGI,[32],> 100 µM
same,GI50,[33],2.88 µM
same,TGI,[33],9.83 µM
same,GI50,[34],2.08 µM
same,TGI,[34],6.19 µM
same,GI50,[35],3.04 µM
same,TGI,[35],12.1 µM
same,GI50,[36],1.81 µM
same,TGI,[36],7.25 µM
same,GI50,[37],4.08 µM
same,TGI,[37],> 100 µM
same,GI50,[38],2.99 µM
same,TGI,[38],9.96 µM
same,GI50,[39],3.27 µM
same,TGI,[39],18.3 µM
same,GI50,[40],2.96 µM
same,TGI,[40],12.3 µM
same,GI50,[41],2.91 µM
same,TGI,[41],13.4 µM
same,GI50,[42],3.12 µM
same,TGI,[42],10.5 µM
same,GI50,[43],3.02 µM
same,TGI,[43],23.5 µM
same,GI50,[44],2.36 µM
same,TGI,[44],6.49 µM
same,GI50,[45],3.37 µM
same,TGI,[45],> 100 µM
same,GI50,[46],2.74 µM
same,TGI,[46],10.8 µM
same,GI50,[47],3.09 µM
same,TGI,[47],36.4 µM
same,GI50,[48],3.6 µM
same,TGI,[48],> 100 µM
same,GI50,[49],2.03 µM
same,TGI,[49],5.11 µM
same,GI50,[50],3.43 µM
same,TGI,[50],> 100 µM
same,GI50,[51],1.92 µM
same,TGI,[51],5.34 µM
same,GI50,[52],2.55 µM
same,TGI,[52],13.1 µM
same,GI50,[53],2.68 µM
same,TGI,[53],> 100 µM
same,GI50,[54],2.96 µM
same,TGI,[54],16.2 µM
same,GI50,[55],2.68 µM
same,TGI,[55],8.32 µM
same,GI50,[56],3.04 µM
same,TGI,[56],11.3 µM
same,GI50,[57],5.01 µM
same,TGI,[57],> 100 µM
